≈ marks a conversion by molar mass, not a printed value. Where “and” joins values, the source holds several entries; their conditions need not be identical. Equal entries are not always repeated. Where two headings read alike, the source gives them in different places.
Experiments:
human red blood cells = assay: Hemolytic activity (MHC50/HC50), 18 h microtiter dilution; assay type: cell-based; details: for Hemolytic activity Fold (fold improvement in HC50 compared to that of D4): relative to D4
Protocol: Hemoglobin release was determined spectrophotometrically at 570 nm. […] MHC50 was determined by plot the concentration-lysis format.

[1] = system: Aspergillus nidulans (AZN 2867); assay: Antifungal activity (MIC50/MIC90); assay type: cell-based
Description: (§1) The filamentous fungal and yeast strains used in this study were either purchased from American Type Culture Collection, Manassas, Va. (ATCC) or were generous gifts from various institutions: Aspergillus nidulans (AZN 2867), Absidia corymbifera (clinical isolate), Rhizomucor spp. (clinical isolate), Rhizopus microsporus (clinical isolate), Rhizopus oryzae (AZN 8892), Scedosporium prolificans (clinical isolate), Candida albicans (ATCC 24433).
(§2) Fungal spores (final concentration 10^4 spores/ml) were suspended in ½ Potato Dextrose Broth (Difco), and the yeast strains were suspended at a starting A600=0.001 in the yeast complete medium YPG (1% yeast extract, 1% peptone, 2% glucose). The medium was supplemented with tetracycline (10 μg/ml) and cefotaxim (100 μg/ml), and dispensed by aliquots of 80 μl into wells of a microplate containing 20 μl of either water or the sample to be analyzed. Growth of fungi and yeasts was evaluated after 24 h at 30° C. by light microscopy and after 48 h by measuring the culture absorbance at 595 nm using a microplate reader. Under conditions where the antifungal assay was performed in the presence of salt, the ½ Potato Dextrose Broth medium was prepared in phosphate-buffered saline, 137 mM NaCl.
(§3) The procedure used for the determination of the minimal inhibitory concentration (MIC) was identical to that for the antifungal assay. The MIC values are expressed as the lowest peptide concentration that causes 90% or 50% growth inhibition. The fungicidal effects of the synthetic peptides in the MIC assay were verified by reinoculation of the yeasts in potato dextrose broth at the end of the incubation time.

[2] = system: Candida albicans (ATCC 24433); assay: Antifungal activity (MIC50/MIC90); assay type: cell-based
Description: as §1, §2, §3

[3] = system: Scedosporium prolificans (clinical isolate); assay: Antifungal activity (MIC50/MIC90); assay type: cell-based
Description: as §1, §2, §3

Interleukin-6 (IL-6) = assay: Cytokine assay, stimulation of peripheral blood mononuclear cells, ELISA; assay type: cell-based, human
Protocol: (§4) Isolation of peripheral blood mononuclear cells (PBMCs) from 5 healthy individuals was performed as described elsewhere (108). Briefly, venous blood was drawn into 10 ml tubes containing 0.2 mg of EDTA (Monoject's-Hertogenbosch, NL). The PBMC fraction was obtained by density centrifugation of blood using Ficoll-Paque (Pharmacia Biotech AB, Sweden). […] The PBMCs were incubated in 96-well tissue culture plates (Greiner, Alphen, NL) at a concentration of 5×10^5 cells per well in a total volume of 200 μl, in the presence or absence of a set of stimuli in different experiments. […] After 24 h of incubation, the supernatants were collected and stored at -80° C. until analysis. Interleukin-6 (IL-6) and tumor necrosis factor (TNF) were measured by ELISA according to the manufacturer's protocol ([…], CLB, Amsterdam, NL). […] Agilent Technologies) with a linear AB gradient (0.2% acetonitrile/min) at a flow rate of 2 ml/min, where mobile phase A was 0.1% aqueous TFA in water and B was 0.1% TFA in acetonitrile. The purity of peptides was verified by analytical RP-HPLC. The peptides were further characterized by electrospray mass spectrometry and amino acid analysis.

[4] = system: tumor necrosis factor (TNF); assay: as above; assay type: cell-based, human
Protocol: as §4

[5] = Helical structure by circular dichroism spectroscopy; assay type: physicochemical; details: 222 nm
Protocol: The mean residue molar ellipticities of peptides were determined by circular dichroism (CD) spectroscopy, using a Jasco J-810 spectropolarimeter (Easton, Md.) at 5° C. under benign (non-denaturing) conditions (50 mM NaH2PO4/Na2HPO4/100 mM KCl, pH 7.0), hereafter referred to as benign buffer, as well as in the presence of an α-helix inducing solvent, 2,2,2-trifluoroethanol, TFE, (50 mM NaH2PO4/Na2HPO4/[…], pH 7.0 buffer/50% TFE). A 10-fold dilution of an approximately […] stock solution of the peptide analogs was loaded into a 0.1 cm quartz cell and its ellipticity scanned from 195 to 250 nm. The values of molar ellipticities of the peptide analogs at a wavelength of 222 nm were used to estimate the relative α-helicity of the peptides.

[6] = system: Mycobacterium tuberculosis strain H37Rv
[7] = system: Absidia corymbifera (clinical isolate); details: mean of 2 sets
[8] = system: Rhizomucor spp. (clinical isolate)
[9] = system: Rhizopus microsporus (clinical isolate)
[10] = system: Rhizopus oryzae (AZN 8892)
[11] = peptide concentration 0.01 μg/ml
[12] = peptide concentration 100 μg/ml

CC[C@@H](C)[C@@H](NC(=O)[C@@H](C)NC(=O)[C@@H](CCCCN)NC(=O)[C@@H](CC(C)C)NC(=O)[C@@H](C)NC(=O)[C@H](NC(=O)[C@@H](Cc1c[nH]cn1)NC(=O)[C@@H](CC(C)C)NC(=O)[C@H](NC(=O)[C@H](NC(=O)[C@@H](CCCCN)NC(=O)[C@@H](CCCCN)NC(=O)[C@@H](C)NC(=O)[C@@H](CO)NC(=O)[C@@H](CCCCN)NC(=O)[C@@H](Cc1ccccc1)NC(=O)[C@H](NC(=O)[C@@H](CCCCN)NC(=O)[C@@H](CC(C)C)NC(=O)[C@@H](Cc1ccccc1)NC(=O)[C@@H](CO)NC(=O)[C@@H](CCCCN)NC(=O)[C@@H](Cc1c[nH]c2ccccc12)NC(=O)[C@@H](CCCCN)NC(C)=O)[C@H](C)O)[C@H](C)O)C(C)C)[C@H](C)O)C(=O)N[C@H](CO)C(=O)N[C@H](CO)C(N)=O [D1]
Hemolytic activity HC50 (human red blood cells; further experiments, 50% hemolysis of human red blood cells after 18 h): 421.5 µg/mL | Hemolytic activity Fold (fold improvement in HC50 compared to that of D4) (human red blood cells; further experiments): 120 fold | Hemolytic activity HC50 (human red blood cells; peptide concentration that produces 50% hemolysis of human red blood cells after 18 h, standard microtiter dilution method): 1000 µg/mL and 1000.0 µg/mL | Hemolytic activity Fold (fold improvement in HC50 compared to that of D4) (human red blood cells): 286 fold | A. nidulans MIC50 ([1]; inhibits 50% of fungal growth): 9.4 µg/mL | A. nidulans MIC90 ([1]; inhibits 90% of fungal growth): 50.0 µg/mL | C. albicans MIC50 ([2]; inhibits 50% of fungal growth): 50.0 µg/mL | C. albicans MIC90 ([2]; inhibits 90% of fungal growth): 50.0 µg/mL | S. prolificans MIC50 ([3]; inhibits 50% of fungal growth): 50.0 µg/mL | S. prolificans MIC90 ([3]; inhibits 90% of fungal growth): 50.0 µg/mL | IL-6 Exp 1 (Interleukin-6 (IL-6); [11]): <3 pg/mL | IL-6 Exp 2 (Interleukin-6 (IL-6); peptide concentration 0.01 μg/ml, Exp 2): <3 pg/mL | IL-6 Exp 1 (Interleukin-6 (IL-6); [12]): <3 pg/mL | TNF Exp 1 [4, 11]: <0.015 ng/mL | TNF Exp 2 [4, 11]: <0.015 ng/mL | TNF Exp 1 ([4]; peptide concentration 1 μg/ml): <0.015 ng/mL | TNF Exp 2 ([4]; peptide concentration 1 μg/ml): <0.015 ng/mL | TNF Exp 1 [4, 12]: <0.015 ng/mL | TNF Exp 2 [4, 12]: <0.015 ng/mL | 50% TFE [θ]222 (mean residue molar ellipticity) ([5]; benign buffer containing 50% trifluoroethanol): 34,100 deg cm^2/dmol | Benign [θ]222 (mean residue molar ellipticity) ([5]; benign conditions (100 mM KCl, 50 mM NaH2PO4/Na2HPO4, pH 7.0)): 1,150 deg cm^2/dmol | Anti-tuberculosis activity MIC [6]: 70.7 ± 14.8 µg/mL | Anti-tuberculosis activity to H37Rv strain Fold (compared to D4) [6]: 2.3 fold | Anti-tuberculosis activity MIC ([6]; H37Rv): 23.6 ± 5.0 µM | Anti-tuberculosis activity to H37Rv strain MIC ([6]; H37Rv): 23.6 µM | Anti-tuberculosis activity to H37Rv strain MIC ([6]; further experiments, […]): 70.7 µg/mL | MIC B. subtilus C626 (Gram-positive bacteria; B. subtilus C626, MH medium, 37° C., 24 h): 32 µg/mL (≈ 10.7 µM) | MIC B. subtilus C971 ATCC6633 (Gram-positive bacteria; B. subtilus C971 ATCC6633, MH medium, 37° C., 24 h): 2 µg/mL (≈ 0.669 µM) | MIC E. jaecalis C625 (Gram-positive bacteria; E. jaecalis C625, MH medium, 37° C., 24 h): 32 µg/mL (≈ 10.7 µM) | MIC S. aureus C622 ATCC3923 (Gram-positive bacteria; S. aureus C622 ATCC3923, MH medium, 37° C., 24 h): 64 µg/mL (≈ 21.4 µM) | MIC S. aureus K147 (Gram-positive bacteria; S. aureus K147, MH medium, 37° C., 24 h): 64 µg/mL (≈ 21.4 µM) | MIC S. epidermidis C623 (Gram-positive bacteria; S. epidermidis C623, MH medium, 37° C., 24 h): 4 µg/mL (≈ 1.34 µM) | Fold improvement in antimicrobial activity (geometric mean data) compared to that of D4, Gram-positive bacteria (Gram-positive bacteria; relative to D4): 0.9 fold | MIC GM (geometric mean of the MIC values), Gram-positive bacteria (Gram-positive bacteria; six Gram-positive strains): 18.0 µg/mL | GM (geometric mean of the MIC50 values), Zygomycota fungi (Zygomycota fungi; four Zygomycota strains): 9.1 µg/mL | Fold improvement in antifungal activity (geometric mean data) compared to that of D4, Zygomycota fungi (Zygomycota fungi; relative to D4): 5.5 fold | fold less active than D4 (Ascomycota fungi; Ascomycota fungi): 5 fold | Fold improvement in antifungal activity (geometric mean data) compared to that of D4, Ascomycota fungi (Ascomycota fungi; relative to D4): 0.2 fold | GM (geometric mean of the MIC50 values), Ascomycota fungi (Ascomycota fungi; three Ascomycota strains): 28.6 µg/mL | A. corymbifera MIC50 ([7]; peptide concentration that inhibits 50% of fungal growth): 12.5 µg/mL | A. corymbifera MIC90 ([7]; peptide concentration that inhibits 90% of fungal growth): 12.5 µg/mL | Rhizomucor spp. MIC50 ([8]; inhibits 50% of fungal growth): 4.7 µg/mL | Rhizomucor spp. MIC90 ([8]; inhibits 90% of fungal growth): 6.3 µg/mL | R. micosporus MIC50 ([9]; inhibits 50% of fungal growth): 6.3 µg/mL | R. micosporus MIC90 ([9]; inhibits 90% of fungal growth): 12.5 µg/mL | R. oryzae MIC50 ([10]; inhibits 50% of fungal growth): 18.8 µg/mL | R. oryzae MIC90 ([10]; inhibits 90% of fungal growth): 25.0 µg/mL

Source: patent publication US20100099614A1, “Antimicrobial Peptides and Methods of Use” (priority 2008, published 2010)
